From patent US20240285670A1, “THERAPEUTIC TREATMENT OF TUMORS BY BLOCKING THE HEME SYNTHESIS-EXPORT AXIS” (Università degli Studi di Torino, priority 2021, published 2024)

Tests used:
Assay type in all cases: cell-based, human
FLVCR1a = test: qRT-PCR analysis of FLVCR1a expression in SHSY5Y cells; settings: 5 mM ALA for 15 hours vs non-treated
Protocol: (§1) (A) Heme content in SHSY5Y cells non-treated (NT) or treated with 5 mM ALA for 15 hours. Values are expressed as pmol heme/mg protein. Data represent mean±SEM, n=3; *=P<0.05. (B, C) qRT-PCR analysis of the expression of ALAS1 (B) and FLVCR1a (C) in SHSY5Y cells non-treated (NT) or treated with 5 mM ALA for 15 hours. Transcript abundance, normalized to beta-actin mRNA expression, is expressed as a fold increase over a calibrator sample. Data represent mean±SEM, n=4. For statistical analyses, an unpaired Student's t-test was used; *p<0.05. (D) qRT-PCR analysis of the expression of ALAS1 in SKCO1 cells untreated (NT) or treated with 5 mM ALA for 24 hours. Transcript abundance, normalized to beta-actin mRNA expression, is expressed as a fold increase over a calibrator sample. Data represent mean±SEM, n=5. […] Band intensities were measured by densitometry and normalized to beta-actin expression. […] (F) Proliferation of SHSY5Y cells assessed by crystal violet staining at different time points (starting from the day after plating, named “day 0”). Treatment with 5 mM ALA occurred at “day 0” and cells were monitored until the end of the experiment without medium refresh. […] (G) SKCO1 cells viability measured by the CellTiter-Fluor Cell Viability Assay (Promega, Madison, WI USA, catalog n°G6080) at different time points, starting from the day after plating (named “day 0”), as a readout of cell proliferation. […]

SKCO1 cells = SKCO1 cells viability (CellTiter-Fluor) as readout of proliferation; settings: 5 mM ALA at day 0, no medium refresh
Protocol: as §1

BTECs = test: Heme content in BTECs; settings: FLVCR1a knockdown vs scramble shRNA BTECs
Description: (A) Frequency (%) of patient tumors with overexpression of FLVCR1 compared to their matched normal tissues across multiple cancer types. The number of patients showing tumor FLVCR1 overexpression relative to the total number of patients examined are indicated in the plot. Data derive from the BioXpress (Wan et al., 2015). […] Transcript abundance, normalized to beta-actin mRNA expression (for SHSY-5Y cells) or to 18s mRNA (for BTECs), is expressed as a fold increase over a calibrator sample. Data represent mean±SEM, n=4. For statistical analyses, an unpaired Student's t-test was used; ***p<0.001. (C, E) Western blot analysis of FLVCR1a expression in SHSY-5Y cells (C) and BTECs (E). […] Band intensities were measured by densitometry and normalized to vinculin expression. […] Values are expressed as pmol heme/mg protein. […] Values are expressed as pmol heme/mg protein. […]
Intracellular heme concentration was measured using a fluorescence assay, as previously reported (Sinclair et al., 2001). […] Fluorescence (wavelength: excitation 405 nm-emission 660-720 nm) of the resultant protoporphyrin was assessed on a Glomax Multi Detection System (Promega Corporation, Madison WI, USA).
The endogenous protoporphyrin content (measured in parallel unheated samples in oxalic acid) was subtracted. […] Results were expressed as relative fluorescence intensity or, alternatively, as pmol of heme/mg total protein.

Compound: Cl.NCC(=O)CCC(=O)O [5-ALA, 5-Aminolevulinic acid hydrochloride]
- FLVCR1a transcript levels (FLVCR1a): reduced
- cell proliferation (cell viability) (SKCO1 cells): Reduced proliferation

Compound: FLVCR1a shRNA: shRNA specifically down-regulating FLVCR1a without targeting FLVCR1b; pLKO.1 lentiviral clone TRCN0000059599, antisense SEQ ID No.: 2 (antisense TTGCTAATGATGCTGTACTGG; sense CCAGTACAGCATCATTAGCAA)
- heme levels at the steady state (BTECs): increased heme levels
